Blank lines part the entries; values can stand above or below the compound they belong to.
Key:
human HDAC7 = target: T1, human HDAC7 (Homo sapiens, UniProt Q8WUI4); assay: HDAC7 enzymatic activity assay (fluorogenic peptide); assay type: biochemical; conditions: 10-dose, 3-fold serial dilution, triplicate
T1 construct: amino acids 518 end with GST N-terminal tag, MW=78 kDa; GST (N); purchased BioMol, Hamburg, Germany; host or cells: baculovirus expression system
T1 sequence (Q8WUI4 479-952 limits assumed): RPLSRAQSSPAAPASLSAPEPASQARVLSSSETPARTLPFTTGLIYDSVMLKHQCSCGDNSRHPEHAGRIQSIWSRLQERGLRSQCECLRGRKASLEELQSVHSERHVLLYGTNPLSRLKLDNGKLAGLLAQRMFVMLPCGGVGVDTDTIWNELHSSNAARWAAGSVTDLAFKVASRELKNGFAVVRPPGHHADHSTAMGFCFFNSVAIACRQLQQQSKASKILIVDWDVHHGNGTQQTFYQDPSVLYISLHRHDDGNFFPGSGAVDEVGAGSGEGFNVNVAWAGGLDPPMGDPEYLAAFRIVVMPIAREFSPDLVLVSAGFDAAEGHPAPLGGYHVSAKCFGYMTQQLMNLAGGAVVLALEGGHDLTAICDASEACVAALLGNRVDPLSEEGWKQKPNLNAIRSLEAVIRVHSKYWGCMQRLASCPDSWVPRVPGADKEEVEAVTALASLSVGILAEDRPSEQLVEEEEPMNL
Protocol: (§1) Peptide substrates: all HDAC assays were performed using acetylated peptide substrates labeled with 7-amino-4-methylcoumarin (AMC): • Substrate for isoforms HDAC1, 2, 3, 6, 10, 11, and HeLa nuclear extract assays: acetylated fluorogenic peptide from p53 residues 379-382 (RHKKAc). • Substrate for isoforms HDAC4, 5, 7, 9: fluorogenic Boc-L-Lys (s-trifluoroacetyl)-AMC. • Substrate for HDAC8 assays: acetylated fluorogenic peptide from p53 residues 379-382 (RHKAcKAc).
(§2) 50 μl of peptide substrate (see “peptide substrates” section above) and an optimal concentration of the corresponding enzyme (see “enzymes” section above) in the assay buffer at a final DMSO concentration of 1% were incubated in the presence of gradient concentrations of inhibitors (10-dose IC50 mode with 3-fold serial dilution) at 30° C. for 2 hours. The reactions were carried out in a 96-well microplate for fluorometry in a 50 μl reaction volume. After the deacetylation reaction, Fluor-de-Lys-Developer (BioMol Cat. #KI-105) was added to each well to digest the deacetylated substrate, thereby producing the fluorescent signal. The reaction was carried out for 45 minutes at 30° C. with 5% CO2; the fluorescent signal was then measured using an excitation wavelength of 360 nm and an emission wavelength of 460 nm in a microplate-reading fluorometer (GeminiXS, Molecular Devices, Sunnyvale, CA). A curve of deacetylated standard (Biomol, Cat. #KI-142; made from 100 μM with 1:2 dilution and 10 doses, 6 μl) allowed the conversion of the fluorescent signal into micromoles of deacetylated product. All experiments were performed in triplicate. The IC50s were calculated by fitting the experimental data to dose-response curve. DMSO was used as negative control; Trichostatin A (Biomol Cat. #GR-309) was used as positive control inhibitor.
(§3) Enzymatic activity assays were carried out in 11 HDAC enzymes, including HDAC6.

human HDAC5 = target: T2, human HDAC5 (Homo sapiens, UniProt Q9UQL6); assay: HDAC5 enzymatic activity assay (fluorogenic peptide); assay type: biochemical; conditions: 10-dose, 3-fold serial dilution, triplicate
T2 construct: GST (N); purchased BioMol, Hamburg, Germany; host or cells: baculovirus / Sf9 cells
Protocol: as §1
50 μl of peptide substrate (see “peptide substrates” section above) and an optimal concentration of the corresponding enzyme (see “enzymes” section above) in the assay buffer at a final DMSO concentration of 1% were incubated in the presence of gradient concentrations of inhibitors (10-dose IC50 mode with 3-fold serial dilution) at 30° C. for 2 hours. The reactions were carried out in a 96-well microplate for fluorometry in a 50 μl reaction volume. After the deacetylation reaction, Fluor-de-Lys-Developer (BioMol Cat. #KI-105) was added to each well to digest the deacetylated substrate, thereby producing the fluorescent signal. The reaction was carried out for 45 minutes at 30° C. with 5% CO2; the fluorescent signal was then measured using an excitation wavelength of 360 nm and an emission wavelength of 460 nm in a microplate-reading fluorometer (GeminiXS, Molecular Devices, Sunnyvale, CA). […]

human HDAC8 = target: T3, human HDAC8 (Homo sapiens, UniProt Q9BY41); assay: HDAC8 enzymatic activity assay (fluorogenic peptide); assay type: biochemical; conditions: 10-dose, 3-fold serial dilution, triplicate
T3 construct: purchased BioMol SE-145; host or cells: E. coli
T3 sequence (Q9BY41 1-377): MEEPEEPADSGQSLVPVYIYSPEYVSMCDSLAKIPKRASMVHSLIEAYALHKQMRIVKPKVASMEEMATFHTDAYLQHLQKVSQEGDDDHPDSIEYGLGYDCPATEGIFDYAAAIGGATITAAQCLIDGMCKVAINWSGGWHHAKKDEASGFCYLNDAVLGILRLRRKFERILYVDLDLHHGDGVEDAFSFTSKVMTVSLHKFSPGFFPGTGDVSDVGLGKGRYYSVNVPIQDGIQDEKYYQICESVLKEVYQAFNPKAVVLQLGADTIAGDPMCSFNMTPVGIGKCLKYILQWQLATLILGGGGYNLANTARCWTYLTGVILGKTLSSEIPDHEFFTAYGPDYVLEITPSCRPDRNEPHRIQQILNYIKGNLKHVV
Protocol: as §1, §2, §3

human HDAC2 = target: T4, human HDAC2 (Homo sapiens, UniProt Q92769); assay: HDAC2 enzymatic activity assay (fluorogenic peptide); assay type: biochemical; conditions: 10-dose, 3-fold serial dilution, triplicate
T4 construct: His (C); purchased BioMol SE-500; host or cells: baculovirus / Sf9 cells
Protocol: as §1, §2, §3

human HDAC6 = target: T5, human HDAC6 (Homo sapiens, UniProt Q9UBN7); assay: HDAC6 enzymatic activity assay (fluorogenic peptide); assay type: biochemical; conditions: for IC50: 10-dose, 3-fold serial dilution, triplicate; for HDAC6 selectivity proportion: matches IC50 HDAC1 / IC50 HDAC6
T5 construct: GST (N); purchased BioMol SE-508; host or cells: baculovirus / Sf9 cells
T5 sequence (Q9UBN7 1-1215): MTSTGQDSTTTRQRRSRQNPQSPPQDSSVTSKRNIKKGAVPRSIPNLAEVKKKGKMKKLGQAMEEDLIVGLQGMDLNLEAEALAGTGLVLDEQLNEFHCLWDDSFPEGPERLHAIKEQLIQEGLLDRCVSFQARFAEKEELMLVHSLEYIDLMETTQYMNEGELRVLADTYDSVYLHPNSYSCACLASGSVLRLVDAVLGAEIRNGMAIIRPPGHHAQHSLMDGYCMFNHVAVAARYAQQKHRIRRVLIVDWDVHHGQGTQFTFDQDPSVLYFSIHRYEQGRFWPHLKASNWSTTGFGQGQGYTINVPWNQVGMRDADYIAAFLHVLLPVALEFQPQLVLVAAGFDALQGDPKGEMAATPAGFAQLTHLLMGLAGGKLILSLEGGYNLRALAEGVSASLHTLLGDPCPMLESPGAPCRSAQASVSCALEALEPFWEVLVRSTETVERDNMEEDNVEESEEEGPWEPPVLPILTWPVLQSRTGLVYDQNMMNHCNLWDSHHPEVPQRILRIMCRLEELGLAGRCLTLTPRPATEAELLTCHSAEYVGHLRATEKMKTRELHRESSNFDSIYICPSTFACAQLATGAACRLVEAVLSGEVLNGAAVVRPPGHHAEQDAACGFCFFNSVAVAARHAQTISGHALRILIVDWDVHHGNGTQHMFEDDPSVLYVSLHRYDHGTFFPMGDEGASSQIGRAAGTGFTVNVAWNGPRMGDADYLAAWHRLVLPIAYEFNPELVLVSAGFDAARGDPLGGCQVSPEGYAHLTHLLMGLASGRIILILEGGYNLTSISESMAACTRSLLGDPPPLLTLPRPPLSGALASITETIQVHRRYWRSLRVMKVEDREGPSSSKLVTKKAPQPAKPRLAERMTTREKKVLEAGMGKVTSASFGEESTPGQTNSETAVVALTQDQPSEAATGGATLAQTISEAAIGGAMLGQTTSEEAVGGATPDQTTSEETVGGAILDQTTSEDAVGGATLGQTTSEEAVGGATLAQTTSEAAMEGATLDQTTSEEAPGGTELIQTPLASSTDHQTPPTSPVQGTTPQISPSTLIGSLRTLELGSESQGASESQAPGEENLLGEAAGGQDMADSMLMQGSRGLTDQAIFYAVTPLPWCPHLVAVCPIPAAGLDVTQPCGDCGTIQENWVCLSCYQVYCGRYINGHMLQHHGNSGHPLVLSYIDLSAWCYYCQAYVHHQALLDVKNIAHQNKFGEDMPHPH
Protocol: as §1, §2, §3

human HDAC1 = target: T6, human HDAC1 (Homo sapiens, UniProt Q13547); assay: HDAC1 enzymatic activity assay (fluorogenic peptide); assay type: biochemical; conditions: for IC50: 10-dose, 3-fold serial dilution, triplicate
T6 construct: GST (C); purchased BioMol SE-456; host or cells: baculovirus / Sf9 cells
Protocol: as §1, §2, §3

HDAC enzymes = assay: Enzymatic activity assays in 11 HDAC enzymes (statements on the panel); assay type: biochemical, human; conditions: for inhibitory capacity with respect to the rest of the HDAC enzymes: HDAC enzymes other than HDAC6
Protocol: as §1, §2, §3

T6 sequence (Q13547 whole entry): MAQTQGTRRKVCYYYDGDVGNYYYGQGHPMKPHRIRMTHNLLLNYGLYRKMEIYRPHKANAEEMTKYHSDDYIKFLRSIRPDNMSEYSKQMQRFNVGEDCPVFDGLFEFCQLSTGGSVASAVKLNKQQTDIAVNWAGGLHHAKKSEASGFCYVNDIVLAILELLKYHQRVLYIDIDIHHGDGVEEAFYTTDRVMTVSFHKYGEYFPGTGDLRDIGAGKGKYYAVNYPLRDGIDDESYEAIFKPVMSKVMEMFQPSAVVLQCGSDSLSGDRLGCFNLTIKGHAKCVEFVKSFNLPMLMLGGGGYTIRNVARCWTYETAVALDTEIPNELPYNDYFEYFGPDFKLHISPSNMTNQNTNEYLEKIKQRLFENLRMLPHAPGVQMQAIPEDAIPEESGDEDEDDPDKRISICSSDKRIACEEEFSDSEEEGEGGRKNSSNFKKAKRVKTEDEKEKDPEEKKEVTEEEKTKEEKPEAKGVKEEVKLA
T2 sequence (Q9UQL6 1-1123 isoform Q9UQL6-3): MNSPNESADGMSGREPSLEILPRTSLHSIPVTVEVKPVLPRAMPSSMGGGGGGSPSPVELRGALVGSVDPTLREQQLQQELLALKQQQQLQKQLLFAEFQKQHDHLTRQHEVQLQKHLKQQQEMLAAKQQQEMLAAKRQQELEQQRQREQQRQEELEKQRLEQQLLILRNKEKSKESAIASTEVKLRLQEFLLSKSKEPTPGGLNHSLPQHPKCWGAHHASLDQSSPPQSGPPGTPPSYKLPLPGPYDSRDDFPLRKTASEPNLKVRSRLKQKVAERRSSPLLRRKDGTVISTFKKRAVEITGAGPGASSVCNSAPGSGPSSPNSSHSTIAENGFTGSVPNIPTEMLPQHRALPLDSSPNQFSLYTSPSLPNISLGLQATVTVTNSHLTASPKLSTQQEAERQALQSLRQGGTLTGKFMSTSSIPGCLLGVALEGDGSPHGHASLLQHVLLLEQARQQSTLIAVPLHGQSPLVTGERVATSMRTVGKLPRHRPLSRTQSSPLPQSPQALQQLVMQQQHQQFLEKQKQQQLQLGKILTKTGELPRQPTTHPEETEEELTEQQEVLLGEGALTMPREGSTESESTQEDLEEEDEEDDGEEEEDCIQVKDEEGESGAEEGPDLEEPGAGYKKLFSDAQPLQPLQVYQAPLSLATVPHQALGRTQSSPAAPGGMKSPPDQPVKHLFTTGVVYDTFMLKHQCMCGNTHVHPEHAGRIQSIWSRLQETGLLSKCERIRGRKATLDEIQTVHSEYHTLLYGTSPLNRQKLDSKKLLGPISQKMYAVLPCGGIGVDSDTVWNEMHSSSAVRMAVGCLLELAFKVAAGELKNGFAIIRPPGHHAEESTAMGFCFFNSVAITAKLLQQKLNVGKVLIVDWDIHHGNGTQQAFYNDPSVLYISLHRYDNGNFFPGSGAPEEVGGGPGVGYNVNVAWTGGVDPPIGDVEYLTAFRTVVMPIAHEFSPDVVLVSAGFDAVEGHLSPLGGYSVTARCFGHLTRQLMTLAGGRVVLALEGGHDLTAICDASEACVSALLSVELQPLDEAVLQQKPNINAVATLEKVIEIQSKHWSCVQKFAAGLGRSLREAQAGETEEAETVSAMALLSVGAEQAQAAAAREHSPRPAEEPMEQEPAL
T4 sequence (Q92769 whole entry): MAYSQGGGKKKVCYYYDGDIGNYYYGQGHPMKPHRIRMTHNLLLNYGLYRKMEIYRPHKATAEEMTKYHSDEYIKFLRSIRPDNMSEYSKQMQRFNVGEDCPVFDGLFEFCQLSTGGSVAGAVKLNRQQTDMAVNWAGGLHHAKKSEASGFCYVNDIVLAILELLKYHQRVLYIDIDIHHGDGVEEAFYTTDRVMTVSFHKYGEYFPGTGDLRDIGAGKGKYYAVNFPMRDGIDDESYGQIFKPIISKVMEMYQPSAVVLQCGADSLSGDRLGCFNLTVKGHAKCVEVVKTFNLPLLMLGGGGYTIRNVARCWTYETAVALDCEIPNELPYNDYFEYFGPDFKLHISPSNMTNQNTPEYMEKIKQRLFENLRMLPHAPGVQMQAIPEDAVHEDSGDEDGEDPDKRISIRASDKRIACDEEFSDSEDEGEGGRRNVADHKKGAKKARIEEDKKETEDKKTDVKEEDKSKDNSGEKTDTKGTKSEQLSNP

SMILES: C[C@H](CCC(=O)NCCCC(=O)NO)[C@H]1CC[C@H]2[C@@H]3[C@@H](O)C[C@@H]4C[C@H](O)CC[C@]4(C)[C@H]3CC[C@]12C
melting point: 165 to 167 °C

SMILES: NCc1ccc(C(=O)NO)cc1 [4-(aminomethyl)-N-hydroxybenzamide, reference compound]
IC50 (human HDAC7): 14.7 µM
IC50 (human HDAC5): 435 µM
IC50 (human HDAC8): 13.6 µM

SMILES: C[C@H](NC(=O)CC[C@@H](C)[C@H]1CC[C@H]2[C@@H]3[C@@H](O)C[C@@H]4C[C@H](O)CC[C@]4(C)[C@H]3CC[C@]12C)C(=O)NO
melting point: 170 to 172 °C

SMILES: C[C@H](CCC(=O)Nc1ccccc1S)[C@H]1CC[C@H]2[C@@H]3[C@@H](O)C[C@@H]4C[C@H](O)CC[C@]4(C)[C@H]3CC[C@]12C
melting point: 157 to 158 °C

SMILES: C[C@H](CCC(=O)NCc1ccc(C(=O)Nc2ccccc2N)cc1)[C@H]1CC[C@H]2[C@@H]3[C@@H](O)C[C@@H]4C[C@H](O)CC[C@]4(C)[C@H]3CC[C@]12C [Ii, N-(2-aminophenyl)-4-(((R)-4-((3R,5S,7S,8R,9S,10S,13R,14S,17R)-3,7-dihydroxy-10,13-dimethylhexadecahydro-1H-cyclopenta[a]phenanthren-17-yl)pentanamide)methyl)benzamide]
melting point: 168 to 170 °C
IC50 (human HDAC2): 0.516 µM
IC50 (human HDAC6): 8.08 µM
IC50 (human HDAC1): 0.14 µM
HDAC1 selectivity proportion (human HDAC1; matches IC50 HDAC6 / IC50 HDAC1): 58

SMILES: C[C@H](CCC(=O)NCc1ccc(C(=O)NCc2ccc(C(=O)NO)cc2)cc1)[C@H]1CC[C@H]2[C@@H]3[C@@H](O)C[C@@H]4C[C@H](O)CC[C@]4(C)[C@H]3CC[C@]12C [Ig, 4-(((R)-4-((3R,5S,7S,8R,9S,10S,13R,14S,17R)-3,7-dihydroxy-10,13-dimethylhexadecanohydro-1H-cyclopenta[a]phenanthren-17-yl)pentanamido)methyl)-N-(4-(hydroxycarbamoyl)benzyl)benzamide]
inhibitory capacity with respect to the rest of the HDAC enzymes (HDAC enzymes): micromolar range
melting point: 187 to 189 °C
selectivity and inhibitory capacity with respect to HDAC6 enzyme (human HDAC6): nanomolar range
IC50 (human HDAC6): 0.00426 µM
HDAC6 selectivity proportion (human HDAC6): 3574
IC50 (human HDAC1): 15.2 µM

SMILES: C[C@H](CCC(=O)NCc1ccc(C(=O)Nc2cc(-c3ccccc3)ccc2N)cc1)[C@H]1CC[C@H]2[C@@H]3[C@@H](O)C[C@@H]4C[C@H](O)CC[C@]4(C)[C@H]3CC[C@]12C
melting point: 163 to 165 °C

SMILES: C[C@H](CCC(=O)NCCCCCC(=O)NO)[C@H]1CC[C@H]2[C@@H]3[C@@H](O)C[C@@H]4C[C@H](O)CC[C@]4(C)[C@H]3CC[C@]12C [If, 6-((R)-4-((3R,5S,7S,8R,9S,10S,13R,14S,17R)-3,7-dihydroxy-10,13-dimethylhexadecahydro-1H-cyclopenta[a]phenanthren-17-yl)pentanamide)-N-hydroxyhexanamide]
inhibitory capacity with respect to the rest of the HDAC enzymes (HDAC enzymes): micromolar range
melting point: 125 to 127 °C
selectivity and inhibitory capacity with respect to HDAC6 enzyme (human HDAC6): nanomolar range
IC50 (human HDAC6): 0.0821 µM
HDAC6 selectivity proportion (human HDAC6): 31
IC50 (human HDAC1): 2.57 µM

Now from value to compound:

melting point: 116 to 117 °C
SMILES: C[C@H](CCC(=O)NCCS)[C@H]1CC[C@H]2[C@@H]3[C@@H](O)C[C@@H]4C[C@H](O)CC[C@]4(C)[C@H]3CC[C@]12C

melting point: 180 to 182 °C
SMILES: C[C@H](CCC(=O)NCCC(=O)NO)[C@H]1CC[C@H]2[C@@H]3[C@@H](O)C[C@@H]4C[C@H](O)CC[C@]4(C)[C@H]3CC[C@]12C

inhibitory activity on any HDAC (HDAC enzymes; in the assayed concentration range): no inhibitory activity whatsoever
SMILES: C[C@H](CCC(=O)O)[C@H]1CC[C@H]2[C@@H]3[C@@H](O)C[C@@H]4C[C@H](O)CC[C@]4(C)[C@H]3CC[C@]12C [UDCA, ursodeoxycholic acid]

melting point: 149 to 151 °C
SMILES: C[C@H](CCC(=O)NCc1ccc(C(=O)NO)o1)[C@H]1CC[C@H]2[C@@H]3[C@@H](O)C[C@@H]4C[C@H](O)CC[C@]4(C)[C@H]3CC[C@]12C
